Source: PubChem BioAssay AID248 (DTP/NCI, 2004)
Where “and” joins values, the source holds several entries; their conditions need not be identical. Identical values can stand only once. Inconclusive results and toxic doses are left out.

Tested on: L1210 leukemia ip in BDF1 mice, survival T/C
Test: NCI In Vivo Anticancer Drug Screen. Data for tumor model L1210 Leukemia (intraperitoneal) in B6D2F1 (BDF1) mice
Settings: endpoint: mean survival time, higher = longer survival
In short: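 Each compound was tested against a transplantable tumor grown in mice. The endpoint was survival, with treated animals benchmarked against vehicle controls as a simple ratio.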

[1] = dose: 100.0 mg/kg/injection, schedule: Q04DX002 (ip), vehicle: Klucel (hydroxypropylcellulose) (HPC)
[2] = dose: 200.0 mg/kg/injection, schedule: Q04DX002 (ip), vehicle: Klucel (hydroxypropylcellulose) (HPC)
[3] = dose: 100.0 mg/kg/injection, schedule: Q01DX001 (ip), vehicle: saline with Tween-80
[4] = dose: 200.0 mg/kg/injection, schedule: Q01DX001 (ip), vehicle: saline with Tween-80
[5] = dose: 400.0 mg/kg/injection, schedule: Q01DX001 (ip), vehicle: saline with Tween-80
[6] = dose: 50.0 mg/kg/injection, schedule: Q01DX009 (ip), vehicle: saline
[7] = dose: 100.0 mg/kg/injection, schedule: Q01DX009 (ip), vehicle: saline
[8] = dose: 100.0 mg/kg/injection, schedule: Q04DX003 (ip), vehicle: saline
[9] = dose: 200.0 mg/kg/injection, schedule: Q04DX003 (ip), vehicle: saline
[10] = dose: 50.0 mg/kg/injection, schedule: Q01DX009 (ip), vehicle: saline with Tween-80
[11] = dose: 100.0 mg/kg/injection, schedule: Q01DX009 (ip), vehicle: saline with Tween-80
[12] = dose: 200.0 mg/kg/injection, schedule: Q01DX009 (ip), vehicle: saline with Tween-80

In the case of `COC(=O)C(NC(=O)c1ccccc1)C(C)(C)SCc1ccccc1` (stereo unspecified), the T/C (dose: 100.0 mg/kg/injection, schedule: Q04DX003 (ip), vehicle: other) is reported as 92 % of control, the T/C (dose: 200.0 mg/kg/injection, schedule: Q04DX003 (ip), vehicle: other) is reported as 96 % of control and the T/C (dose: 400.0 mg/kg/injection, schedule: Q04DX003 (ip), vehicle: other) is reported as 92 % of control.

In the case of `CCCCOC(OCCCC)C(C)(C)CN(C)C`, the T/C (dose: 12.5 mg/kg/injection, schedule: Q04DX002 (ip), vehicle: saline) is reported as 117 % of control, the T/C (dose: 25.0 mg/kg/injection, schedule: Q04DX002 (ip), vehicle: saline) is reported as 105 % of control and the T/C (dose: 50.0 mg/kg/injection, schedule: Q04DX002 (ip), vehicle: saline) is reported as 98 % of control.

With `Cc1noc(-c2ccc([N+](=O)[O-])o2)n1` the T/C [1] was 94 % of control and the T/C [2] was 105 % of control.

For `C[n+]1cccc(NC(=O)c2ccc(NC(=O)c3ccc(C(=O)Nc4ccc(NC(=N)N)cc4)cc3)cc2)c1`, the T/C (dose: 0.3 mg/kg/injection, schedule: Q01DX009 (ip), vehicle: saline) was 118 % of control, the T/C (dose: 0.6 mg/kg/injection, schedule: Q01DX009 (ip), vehicle: saline) was 123 % of control and the T/C (dose: 1.3 mg/kg/injection, schedule: Q01DX009 (ip), vehicle: saline) was 155 % of control. For the same compound, the T/C (dose: 2.0 mg/kg/injection, schedule: Q01DX009 (ip), vehicle: saline) was 221 % of control, the T/C (dose: 3.0 mg/kg/injection, schedule: Q01DX009 (ip), vehicle: saline) was 294 % of control and the T/C (dose: 5.0 mg/kg/injection, schedule: Q01DX001 (ip), vehicle: saline) was 119 % of control and 124 % of control. For the same compound, the T/C (dose: 5.0 mg/kg/injection, schedule: Q01DX009 (ip), vehicle: saline) was 193 % of control, the T/C (dose: 15.0 mg/kg/injection, schedule: Q01DX009 (ip), vehicle: saline) was 123 % of control and the T/C (dose: 20.0 mg/kg/injection, schedule: Q01DX001 (ip), vehicle: saline) was 178 % of control. For the same compound, the T/C (dose: 40.0 mg/kg/injection, schedule: Q01DX001 (ip), vehicle: saline) was 201 % of control and 249 % of control.

`COc1ccccc1N=Nc1c(O)n(-c2ccccc2)c(=S)n(-c2ccccc2)c1=O` was tested, and the T/C [3] was 106 % of control, the T/C [4] was 95 % of control and the T/C [5] was 94 % of control.

For `CCOC(=O)C(C(=O)O)(C(c1ccccc1)c1ccccc1)C(c1ccccc1)c1ccccc1`, the T/C (dose: 75.0 mg/kg/injection, schedule: Q01DX001 (ip), vehicle: carboxymethylcellulose (CMC)) was 90 % of control.

With `N#CCc1ccc2c(c1)[nH]c1ccccc12` the T/C (dose: 100.0 mg/kg/injection, schedule: Q04DX003 (ip), vehicle: Klucel (hydroxypropylcellulose) (HPC)) was 100 % of control, the T/C (dose: 200.0 mg/kg/injection, schedule: Q04DX003 (ip), vehicle: Klucel (hydroxypropylcellulose) (HPC)) was 100 % of control and the T/C (dose: 400.0 mg/kg/injection, schedule: Q04DX003 (ip), vehicle: Klucel (hydroxypropylcellulose) (HPC)) was 105 % of control.

`O=C(O)C1CCSS1` (stereo unspecified) was tested, and the T/C [6] was 89 % of control, the T/C [7] was 92 % of control and the T/C [8] was 101 % of control. The T/C [9] was 104 % of control.

With `[Se]=P(C#Cc1ccccc1)(C#Cc1ccccc1)C#Cc1ccccc1` the T/C [3] was 87 % of control, the T/C [4] was 93 % of control and the T/C [5] was 87 % of control.

In the case of `O=C(Nc1nccs1)Nc1cccc2ccccc12`, the T/C [1] is reported as 93 % of control, the T/C [2] is reported as 93 % of control and the T/C (dose: 400.0 mg/kg/injection, schedule: Q04DX002 (ip), vehicle: Klucel (hydroxypropylcellulose) (HPC)) is reported as 93 % of control.

With `CCCCC#C/C=C/CCCC` the T/C [10] was 95 % of control, the T/C [11] was 100 % of control and the T/C [12] was 100 % of control.

In the case of `Cc1ccc(NC(C(=O)c2ccccc2)c2ccccc2)cc1` (stereo unspecified), the T/C (dose: 300.0 mg/kg/injection, schedule: Q01DX Z (ip), vehicle: carboxymethylcellulose (CMC)) is reported as 97 % of control, the T/C (dose: 450.0 mg/kg/injection, schedule: Q01DX Z (ip), vehicle: carboxymethylcellulose (CMC)) is reported as 103 % of control and the T/C (dose: 675.0 mg/kg/injection, schedule: Q01DX Z (ip), vehicle: carboxymethylcellulose (CMC)) is reported as 107 % of control.

In the case of `CCCCSCC(N)CO` (stereo unspecified), the T/C [8] is reported as 101 % of control and the T/C [9] is reported as 101 % of control.

`c1nc2c([nH]1)CCCC2` was tested, and the T/C (dose: 25.0 mg/kg/injection, schedule: Q01DX001 (ip), vehicle: carboxymethylcellulose (CMC)) was 106 % of control, the T/C (dose: 25.0 mg/kg/injection, schedule: Q01DX009 (ip), vehicle: carboxymethylcellulose (CMC)) was 103 % of control and 91 % of control and the T/C (dose: 25.0 mg/kg/injection, schedule: Q04DX002 (ip), vehicle: carboxymethylcellulose (CMC)) was 94 % of control and 102 % of control. For the same compound, the T/C (dose: 25.0 mg/kg/injection, schedule: Q04DX003 (ip), vehicle: carboxymethylcellulose (CMC)) was 95 % of control, the T/C (dose: 50.0 mg/kg/injection, schedule: Q01DX001 (ip), vehicle: carboxymethylcellulose (CMC)) was 102 % of control and the T/C (dose: 50.0 mg/kg/injection, schedule: Q01DX009 (ip), vehicle: carboxymethylcellulose (CMC)) was 94 % of control and 92 % of control. The T/C (dose: 50.0 mg/kg/injection, schedule: Q04DX002 (ip), vehicle: carboxymethylcellulose (CMC)) was 94 % of control and 104 % of control, the T/C (dose: 50.0 mg/kg/injection, schedule: Q04DX003 (ip), vehicle: carboxymethylcellulose (CMC)) was 105 % of control and the T/C (dose: 100.0 mg/kg/injection, schedule: Q04DX003 (ip), vehicle: carboxymethylcellulose (CMC)) was 92 % of control.

In the case of `C[C@]12CC[C@H](O)CC1=CC[C@@H]1[C@@H]2CC[C@](C)(C(=O)O)[C@H]1CC1Nc2ccccc2C1=O` (stereo partly specified), the T/C (dose: 100.0 mg/kg/injection, schedule: Q01DX001 (ip), vehicle: saline) is reported as 95 % of control, the T/C [8] is reported as 91 % of control and the T/C (dose: 200.0 mg/kg/injection, schedule: Q01DX001 (ip), vehicle: saline) is reported as 92 % of control and 91 % of control. For the same compound, the T/C [9] was 95 % of control, the T/C (dose: 400.0 mg/kg/injection, schedule: Q01DX001 (ip), vehicle: saline) was 97 % of control and 86 % of control and the T/C (dose: 400.0 mg/kg/injection, schedule: Q04DX003 (ip), vehicle: saline) was 104 % of control.

With `S=C(NCc1ccccc1)NC1CCCCC1` the T/C (dose: 25.0 mg/kg/injection, schedule: Q01DX009 (ip), vehicle: saline) was 97 % of control, the T/C [6] was 100 % of control and the T/C (dose: 50.0 mg/kg/injection, schedule: Q04DX003 (ip), vehicle: saline) was 92 % of control. For the same compound, the T/C [7] was 96 % of control and the T/C [8] was 102 % of control.

For `O=C(Nc1cc(C2=NCCN2)cc(C2=NCCN2)c1)Nc1cc(C2=NCCN2)cc(C2=NCCN2)c1`, the T/C (dose: 0.75 mg/kg/injection, schedule: Q01DX Z (ip), vehicle: carboxymethylcellulose (CMC)) was 101 % of control, the T/C (dose: 1.5 mg/kg/injection, schedule: Q01DX Z (ip), vehicle: carboxymethylcellulose (CMC)) was 98 % of control and the T/C (dose: 3.0 mg/kg/injection, schedule: Q01DX Z (ip), vehicle: carboxymethylcellulose (CMC)) was 95 % of control. For the same compound, the T/C (dose: 6.0 mg/kg/injection, schedule: Q01DX Z (ip), vehicle: carboxymethylcellulose (CMC)) was 101 % of control.

With `COc1ccc([N+](=O)[O-])cc1NS(=O)(=O)c1c(C)cc(C)cc1C` the T/C [10] was 94 % of control and 88 % of control, the T/C [3] was 92 % of control and the T/C [11] was 94 % of control and 97 % of control. The T/C (dose: 100.0 mg/kg/injection, schedule: Q04DX002 (ip), vehicle: saline with Tween-80) was 107 % of control, the T/C (dose: 100.0 mg/kg/injection, schedule: Q04DX003 (ip), vehicle: saline with Tween-80) was 98 % of control and the T/C [4] was 104 % of control. For the same compound, the T/C [12] was 97 % of control and 103 % of control, the T/C (dose: 200.0 mg/kg/injection, schedule: Q04DX002 (ip), vehicle: saline with Tween-80) was 103 % of control and the T/C (dose: 200.0 mg/kg/injection, schedule: Q04DX003 (ip), vehicle: saline with Tween-80) was 97 % of control. For the same compound, the T/C [5] was 92 % of control, the T/C (dose: 400.0 mg/kg/injection, schedule: Q01DX009 (ip), vehicle: saline with Tween-80) was 97 % of control and the T/C (dose: 400.0 mg/kg/injection, schedule: Q04DX002 (ip), vehicle: saline with Tween-80) was 103 % of control. The T/C (dose: 400.0 mg/kg/injection, schedule: Q04DX003 (ip), vehicle: saline with Tween-80) was 93 % of control.

In the case of `Nc1cccc2ncc(C=O)n12`, the T/C (dose: 37.5 mg/kg/injection, schedule: Q01DX001 (ip), vehicle: Klucel (hydroxypropylcellulose) (HPC)) is reported as 102 % of control, the T/C (dose: 75.0 mg/kg/injection, schedule: Q01DX001 (ip), vehicle: Klucel (hydroxypropylcellulose) (HPC)) is reported as 96 % of control and the T/C (dose: 150.0 mg/kg/injection, schedule: Q01DX001 (ip), vehicle: Klucel (hydroxypropylcellulose) (HPC)) is reported as 95 % of control.

`COC(=O)C1=C(\N2CCCC2)CCCCC/C=C\1C(=O)OC` was tested, and the T/C (dose: 75.0 mg/kg/injection, schedule: Q01DX009 (ip), vehicle: saline with Tween-80) was 97 % of control, the T/C (dose: 150.0 mg/kg/injection, schedule: Q01DX009 (ip), vehicle: saline with Tween-80) was 103 % of control and the T/C (dose: 300.0 mg/kg/injection, schedule: Q01DX009 (ip), vehicle: saline with Tween-80) was 107 % of control.
